Assay results from patent US20140288071A1, “INHIBITORS OF NOTUM […] AND METHODS OF THEIR USE” (priority 2011, published 2014).

What was measured:
[1] = molecular target: T1, human notum pectinacetyltransferase (Homo sapiens, UniProt Q6P988); experiment: Binding assay (OPTS esterase substrate, fluorimetric); format: biochemical; details: OPTS substrate 5 μM
T1 construct: made in house; conditioned medium used
T1 sequence (Q6P988 20-496): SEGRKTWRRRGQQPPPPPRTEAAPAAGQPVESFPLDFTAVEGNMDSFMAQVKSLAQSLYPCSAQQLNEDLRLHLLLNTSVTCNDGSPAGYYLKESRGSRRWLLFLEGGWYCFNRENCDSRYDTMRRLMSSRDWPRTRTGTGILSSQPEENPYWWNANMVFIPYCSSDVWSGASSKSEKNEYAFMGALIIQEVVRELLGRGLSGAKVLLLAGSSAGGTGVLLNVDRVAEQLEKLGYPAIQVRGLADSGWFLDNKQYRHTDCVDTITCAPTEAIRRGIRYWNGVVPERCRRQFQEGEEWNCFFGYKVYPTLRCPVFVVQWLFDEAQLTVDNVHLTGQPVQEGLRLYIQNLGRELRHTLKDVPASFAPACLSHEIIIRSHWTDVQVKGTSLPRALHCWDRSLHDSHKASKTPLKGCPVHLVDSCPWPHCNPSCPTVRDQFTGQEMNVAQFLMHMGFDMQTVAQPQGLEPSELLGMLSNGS
Description: Plasmid containing human notum pectinacetyltransferase in pcDNA3.1(+) vector was transfected into HEK293 cells and clones were selecting by growing in presence of 400 ug/mL of G418. Condition media from these cells was used for the assay.

[2] = molecular target: T1, human notum pectinacetyltransferase; experiment: Reporter assay (CellSensor LEF/TCF-bla FreeStyle 293F cells, Wnt3a and notum conditioned media); format: cell-based
Description: Plasmid containing human notum pectinacetyltransferase in pcDNA3.1(+) vector was transfected into HEK293 cells and clones were selecting by growing in presence of 400 ug/mL of G418. […] L cells overexpressing and secreting Wnt3a into the conditioned media were purchased from ATCC.
The assay protocol was as follows. […] The cell growth medium consisted of DMEM with 10% Dialyzed FBS, 5 μg/ml Blasticidin (Invitrogen, R210-01), 0.1 mM NEAA, 25 mM HEPES and 1×GPS. Cells were then trypsinized by first rinsing with PBS, followed by addition of 5 mL of trypsin and incubation of plates at room temperature for two minutes. A total of 10 mL of assay media (Opti-MEM, plus 0.5% dialyzed FBS, 0.1 mM NEAA, 1 mM sodium pyruvate, 10 mM HEPES, 1×GPS) was then added per 15 cm plate. Cells were counted and suspended at 0.75 million cells per mL. […] After incubation of cells at 37° C. for 3 hours, 10 μL of 30 mM LiCl in assay medium was added per well, followed by incubation at 37° C. for another 3 hours. […] Ten μL of the Wnt3a/notum pentinacetyltransferase mixture was then transferred from Greiner plates to each well of the 384-well plates containing the CellSensor cells. After incubation of cells overnight at 37° C., reactions were developed by addition of […] of 1×CCF4 (Invitrogen, Catalogue number K1085) to each well, covering the entire 384-well plate, and gentle rocking in the dark at room temperature for 3 hours.

[3] = system: F1 male hybrid (129×C57) mice; experiment: Midshaft femur cortical thickness by microCT in treated mice; format: in vivo; details: 25 days; for increase in midshaft femur cortical thickness: second study
Description: The compound was administered in the animals' diet. Four groups of mice were used: control (N=12); 25 mg/kg compound (N=9); 83 mg/kg compound (N=9); and an additional group wherein Li2CO3 was administered in the diet (0.1%) (N=9).
Midshaft femur cortical thickness was measured using a Scanco μCT40. […] For the Li2CO3 group, a decrease in cortical bone thickness of 2% (p=0.90) was observed. […]
Midshaft femur cortical thickness was measured by microCT (Scanco μCT40). […]

Row | IC50 [1] [µM] | EC50 [2] [µM] | Compound | further results
1 | < 0.025 | < 1 | COC(=O)CSc1ncnc2c(C)c(Cl)sc12 [methyl 2-((6-chloro-7-methylthieno[3,2-d]pyrimidin-4-yl)thio)acetate] | 
2 | < 0.025 | < 1 | Cc1sc2ncnc(SCC(=O)OC(C)C)c2c1Cl [isopropyl 2-((5-chloro-6-methylthieno[2,3-d]pyrimidin-4-yl)thio)acetate] | 
3 | < 0.025 | < 1 | Cc1sc2ncnc(SCC(=O)OC(C)C)c2c1C [isopropyl 2-((5,6-dimethylthieno[2,3-d]pyrimidin-4-yl)thio)acetate] | 
4 | < 0.025 | < 10 | Cc1sc2ncnc(SCC(=O)N3Cc4ccccc4C3)c2c1C [2-((5,6-dimethylthieno[2,3-d]pyrimidin-4-yl)thio)-1-(isoindolin-2-yl)ethanone] | 
5 | < 0.025 | < 5 | O=C(O)CSc1ncnc2sc3c(c12)CCC3 [2-((6,7-dihydro-5H-cyclopenta[4,5]thieno[2,3-d]pyrimidin-4-yl)thio)acetic acid] | 
6 | < 0.025 | < 1 | Cc1sc2ncnc(SCC(=O)NCCC#N)c2c1Cl [2-((5-chloro-6-methylthieno[2,3-d]pyrimidin-4-yl)thio)-N-(2-cyanoethyl)acetamide] | 
7 | < 0.025 | < 1 | Cc1sc2ncnc(SCC(=O)NC#N)c2c1C [N-cyano-2-((5,6-dimethylthieno[2,3-d]pyrimidin-4-yl)thio)acetamide] | 
8 | < 0.025 | < 1 | CCNC(=O)CSc1ncnc2c(C)c(Cl)sc12 [2-((6-chloro-7-methylthieno[3,2-d]pyrimidin-4-yl)thio)-N-ethylacetamide] | 
9 |  |  | O=C(O)CSc1ncnc2c(C3CC3)c(Cl)sc12 [2-((6-chloro-7-cyclopropylthieno[3,2-d]pyrimidin-4-yl)thio)acetic acid] | increase in cortical bone thickness (midshaft femur) compared to control ([3]; 3 mg/kg daily oral gavage, starting at 8.7 weeks of age, p=0.003): 7%; increase in cortical bone thickness (midshaft femur) compared to control ([3]; 10 mg/kg daily oral gavage, starting at 8.7 weeks of age, p<0.001): 10%; increase in cortical bone thickness (midshaft femur) compared to control ([3]; 30 mg/kg daily oral gavage, starting at 8.7 weeks of age, p<0.001): 13%
10 | < 0.05 | < 1 | Cc1sc2ncnc(SCC(=O)NCCc3cn[nH]c3)c2c1Cl [N-(2-(1H-pyrazol-4-yl)ethyl)-2-((5-chloro-6-methylthieno[2,3-d]pyrimidin-4-yl)thio)acetamide] | 
11 | < 0.025 | < 1 | COCCNC(=O)CSc1ncnc2c(C)c(Cl)sc12 [2-((6-chloro-7-methylthieno[3,2-d]pyrimidin-4-yl)thio)-N-(2-methoxyethyl)acetamide] | 
12 | < 0.025 | < 1 | COC(=O)CSc1ncnc2sc(C)c(C)c12 [methyl 2-((5,6-dimethylthieno[2,3-d]pyrimidin-4-yl)thio)acetate] | 
13 | < 0.025 | < 1 | CC(C)c1sc2ncnc(SCC(=O)O)c2c1Br [2-((5-bromo-6-isopropylthieno[2,3-d]pyrimidin-4-yl)thio)acetic acid] | 
14 | < 0.025 | < 1 | CCc1sc2ncnc(SCC(=O)O)c2c1Br [2-((5-bromo-6-ethylthieno[2,3-d]pyrimidin-4-yl)thio)acetic acid] | 
15 | < 0.025 | < 1 | CCCOC(=O)CSc1ncnc2sc(C)c(C)c12 [propyl 2-((5,6-dimethylthieno[2,3-d]pyrimidin-4-yl)thio)acetate] | 
16 |  |  | O=C([O-])[O-].[Li+].[Li+] [Li2CO3, reference compound] | decrease in cortical bone thickness (midshaft femur) compared to control ([3]; first study, 0.1% in diet, p=0.90): 2%

Row | IC50 [1] [µM] | EC50 [2] [µM] | Compound | further results
17 | < 0.025 | < 1 | CCNC(=O)CSc1ncnc2sc(C)c(Cl)c12 [2-((5-chloro-6-methylthieno[2,3-d]pyrimidin-4-yl)thio)-N-ethylacetamide] | 
18 | < 0.025 | < 1 | Cc1sc2c(SCC(=O)O)ncnc2c1C1CC1 [2-((7-cyclopropyl-6-methylthieno[3,2-d]pyrimidin-4-yl)thio)acetic acid] | 
19 |  |  | Cc1sc2ncnc(SCC(=O)O)c2c1C [2-((5,6-dimethylthieno[2,3-d]pyrimidin-4-yl)thio)acetic acid] | increase in cortical bone thickness (midshaft femur) compared to control ([3]; first study, 25 mg/kg in diet, starting at 10.7 weeks of age, p=0.04): 9%; increase in cortical bone thickness (midshaft femur) compared to control ([3]; first study, 83 mg/kg in diet, starting at 10.7 weeks of age, p=0.07): 8%; increase in midshaft femur cortical thickness ([3]; 8 mg/kg in diet, starting at 10.7 weeks of age, p=0.19): 4%; increase in midshaft femur cortical thickness ([3]; 24 mg/kg in diet, starting at 10.7 weeks of age, p=0.05): 6%
20 | < 0.025 | < 1 | Cc1c(Br)sc2ncnc(SCC(=O)O)c12 [2-((6-bromo-5-methylthieno[2,3-d]pyrimidin-4-yl)thio)acetic acid] | 
21 | < 0.025 | < 1 | Cc1c(Cl)sc2c(SCC(=O)NCC#N)ncnc12 [2-((6-chloro-7-methylthieno[3,2-d]pyrimidin-4-yl)thio)-N-(cyanomethyl)acetamide] | 
22 | < 0.025 | < 1 | Cc1sc2ncnc(SCC(=O)NCC#N)c2c1Cl [2-((5-chloro-6-methylthieno[2,3-d]pyrimidin-4-yl)thio)-N-(cyanomethyl)acetamide] | 
23 | < 0.025 | < 1 | 2-(7-cyclopropyl-6-(trifluoromethyl)thieno[3,2-d]pyrimidin-4-yl)thio)acetate | 
24 | < 0.025 | < 1 | CCc1sc2ncnc(SCC(=O)O)c2c1Cl [2-((5-chloro-6-ethylthieno[2,3-d]pyrimidin-4-yl)thio)acetic acid] | 
25 | < 0.025 | < 1 | Cc1sc2ncnc(SCC(=O)NCCN3CCOCC3)c2c1Cl [2-((5-chloro-6-methylthieno[2,3-d]pyrimidin-4-yl)thio)-N-(2-morpholinoethyl)acetamide] | 
26 | < 0.025 | < 5 | Cc1sc2ncnc(SCC(=O)O)c2c1C1CC1 [2-((5-cyclopropyl-6-methylthieno[2,3-d]pyrimidin-4-yl)thio)acetic acid] | 
27 | < 0.025 | < 1 | CNC(=O)CSc1ncnc2sc(C)c(C)c12 [2-((5,6-dimethylthieno[2,3-d]pyrimidin-4-yl)thio)-N-methylacetamide] | 
28 | < 0.025 | < 1 | Cc1sc2ncnc(SCC(=O)O)c2c1Br [2-((5-bromo-6-methylthieno[2,3-d]pyrimidin-4-yl)thio)acetic acid] | 
29 | < 0.025 | < 1 | Cc1sc2ncnc(SCC(=O)NO)c2c1C [2-((5,6-dimethylthieno[2,3-d]pyrimidin-4-yl)thio)-N-hydroxyacetamide] | 
30 | < 0.025 | < 1 | O=C(O)CSc1ncnc2c(C3CC3)c(C(F)(F)F)sc12 [2-(7-cyclopropyl-6-(trifluoromethyl)thieno[3,2-d]pyrimidin-4-yl)thio)acetic acid] | 
31 | < 0.025 | < 1 | CCCc1sc2ncnc(SCC(=O)O)c2c1Cl [2-((5-chloro-6-propylthieno[2,3-d]pyrimidin-4-yl)thio)acetic acid] | 
32 | < 0.025 | < 1 | Cc1cc(NC(=O)CSc2ncnc3sc(C)c(C)c23)no1 [2-((5,6-dimethylthieno[2,3-d]pyrimidin-4-yl)thio)-N-(5-methylisoxazol-3-yl)acetamide] | 
